From patent publication EP2323645B1, “USE OF LOW-DOSE LOCAL ANAESTHETIC OR DERIVATIVES THEREOF FOR THERAPY OF CHRONIC PAIN, ESPECIALLY MIGRAINE” (priority 2008, dated 2010)

Columns and labels:
[1] = tested on: Phantom- oder Stumpfschmerz; settings: 0,1 - 1,0 ml of 1 % solution; Gross, Anaesthesist 1985; cited from earlier work
[2] = tested on: Kopfschmerzen vom Spannungstyp; assay: Comparative trial of lidocaine, mepivacaine and bupivacaine in tension-type headache (infiltration anaesthesia C1 to C3); assay type: in vivo, Patienten; settings: equipotent dilution 1:5 (Lidocain 0,1 Gew.-%, Bupivacain 0,05 Gew.-%, Mepivacain 0,1 Gew.-%), twice daily for 7 days, 3 male patients, 10-point pain scale
[3] = tested on: neuropathischen Schmerzen; settings: 0.2 %, repeated epidural administration, rat model; Chiyo et al. 2008; cited from earlier work
chronischer Verletzungen = assay: Treatment of chronic injuries
Occipitalisneuralgie = assay: Treatment of occipital neuralgia; assay type: in vivo, Patienten
Excerpt: (§1) Art und Umfang der beklagten Schmerzen und Beschwerden bestimmen unter (ausschließlich) neuroanatomischen und funktionspathologischen Gesichtspunkten die ursachenorientierte Auswahl von Injektionsort, Injektionsmenge und Injektionstiefe sowie die Auswahl der verwendeten Injektionskanülen, z.B. innerhalb einer Bandbreite zwischen 20 und 100 mm Länge, bei grundsätzlich identischer, jedoch gegenüber herkömmlicher Verfahrensweise grundlegend veränderter, Injektionstechnik (siehe z.B. Figuren 1 bis 3).
Behandlung: Je nach Untersuchungsbefund oberflächliche, großflächig ausgebrachte oder tiefe Injektionen des bzw. der betroffenen Nervenäste;

[4] = tested on: therapieresistenter chronischer Schulter-Arm-Schmerzen; assay: Treatment of therapy-resistant chronic shoulder-arm pain; assay type: in vivo, Patienten; settings: 2 to 4 deep paravertebral injections, middle cervical spine, 0,1 Gew.-%
Excerpt: as §1
Behandlung: 2 bis 4 tiefe, seitengleiche paravertebrale Injektionen in Gewebe der mittleren Halswirbelsäule.

[5] = tested on: akuter kleinflächiger Verletzungen; assay: Treatment of acute small-area injuries
spinaler Nozizeptoren = assay: Blockade of spinal nociceptors in healthy volunteers; assay type: in vivo, gesunden Probanden
Excerpt: Die Verabreichung des hier beschriebenen niedrig-dosierten Lidocains oder eines 3-OH-oder 4-OH-Derivats davon in den hier beschriebenen niederen Konzentrationen, z.B. in der erfindungsgemäßen pharmazeutischen Zusammensetzung, kann, insbesondere in der Migräne-Therapie, durch Infiltrations-Anästhesie stattfinden, bspw. durch gezielte, simultane Infiltrations-Anästhesien an der Schädelbasis (ventrale Äste von C1) sowie der ventralen Äste der Spinal-Nerven C2 und C3 unter Anwendung einer pharmakologisch und technisch ziel- und zweckoptimierten Methode. Unter Einsatz der erfindungsgemäßen pharmazeutischen Zusammensetzungen lassen sich die oben beschriebenen Migräne-Schmerzen sowie die Symptome einer vestibulären Dysfunktion - Übelkeit und Schwindel - unabhängig von der vorbestehenden Anfallsdauer einer Migräne spontan und definitiv abortieren. Die Konzentration des dafür verwendeten Lidocains oder eines 3-OH- oder 4-OH-Derivats davon in der erfindungsgemäßen pharmazeutischen Zusammensetzung ist bevorzugt so eingestellt, dass keine motorischen oder Sensibilitäts-Störungen auftreten.

[6] = tested on: episodischer und chronischer Kopfschmerzen vom Spannungs-Typ; assay: Treatment of episodic and chronic tension-type headache; assay type: in vivo, Patienten
Excerpt: as §1
(§2) Vor Behandlungsbeginn werden mit Ausnahme von Benzodiazepinderivaten sämtliche "schmerz- und beschwerdespezifische" Medikamente spontan abgesetzt. Benzodiazepinderivate werden schleichend eliminiert.
Behandlung: Die Anzahl der Injektionen und Injektionsorte sind abhängig vom aktuellen Untersuchungsbefund sowie von Patientenangaben zu Schmerzen und Beschwerden. Bevorzugt werden tiefe paravertebrale Injektionen in Gewebe der oberen und mittleren Halswirbelsäule vorgenommen, je Behandlungssitzung in der Regel 6 bis 8 Injektionen mit gegenüber der vorbeschriebenen Migräne-Behandlung geringerer Einstichtiefe.

[7] = tested on: Menstruationsbeschwerden (Menorrhagien); settings: as a rule after two to four further identical sessions
chronischer Migräne = assay: Retrospective analysis of 84 chronic migraine patients treated with repeated deep dorsal cervico-thoracic sympathetic blocks; settings: for Rückgang aller Schmerzen und Begleitsymptome auf: end of treatment
chronisches LWS-Syndrom = assay: Treatment of therapy-resistant chronic pain of hips, legs and feet (chronic lumbar spine syndrome); assay type: in vivo, Patienten; settings: single case, patient, left-sided syndrome for 10 years, repetitive injections L3 to L5 left
Excerpt: as §1
Behandlung: 2 bis 4 tiefe, seitengleiche paravertebrale Injektionen in Gewebe der mittleren und unteren Lendenwirbelsäule bzw. der oberen Kreuzbeinregion (: L3 bis SI alternierend).
Aktueller Fall: • 71-jähriger Patient. Seit 10 Jahren progrediente Krankheitsentwicklung eines chronischen, linksseitigen LWS-Syndroms mit belastungsabhängigen Schmerzen und • Taubheitsgefühl in Oberschenkel und Knie sowie belastungsabhängigem, progredientem Kraftverlust des linken Beines. • Behandlung: Repetitive paravertebrale Injektionen L3 bis L5 links. • Ergebnis: Vollständige Remission aller Beschwerden nach 10 Behandlungssitzungen.

Trigeminusneuralgie = assay: Treatment of trigeminal neuralgia; assay type: in vivo, Patienten; settings: superficial wide-area injection of the affected nerve branch; as a rule; rarely one or two repeat injections needed
Excerpt: as §1
Behandlung: Oberflächliche, großflächig ausgebrachte Injektion des betroffenen Nervenastes am Ort seiner stärksten Irritation;

Migräne = assay: Treatment of migraine by local deep paravertebral injection of low-dose lidocaine; assay type: in vivo, Patienten; settings: 0,1 Gew.-% in Ringer solution, usually 2 to 4 injections per session; within a few minutes; complete freedom from pain and complaints without typical relapse tendency
Excerpt: as §1, §2
Anzahl der Injektionen und Injektionsorte sind abhängig vom aktuellen Untersuchungsbefund sowie von Patientenangaben zu Schmerzen und Beschwerden. Bevorzugt werden tiefe paravertebrale Injektionen von dorsal in antero-lateraler Stichführung in Gewebe der oberen Halswirbelsäule (s. Figur 2) oder der oberen Brustwirbelsäule (s. Figur 1) vorgenommen, je Behandlungssitzung in der Regel 2 bis 4 Injektionen.
(s. Figur 2: Einstichpunkte im Bereich der oberen und mittleren Halswirbelsäule) • Ergebnis: Der Patient war nach 2 ½ Behandlungstagen und seither dauerhaft schmerz- und beschwerdefrei.

Neuralgien = settings: 5 %; Katsushi et al.; cited from earlier work
Kopfschmerzen = settings: 0,5 %, cervical intramuscular injection; Mellick et al. 2006; cited from earlier work

Cc1cccc(C)c1NC(=O)C1CCCCN1C (centres unmarked) [Mepivacain]
Patienten nachweisbar effektiv behandelt [1]: ca. 80% | Wirkung und Therapieeffekt gegenüber Lidocain [2]: etwa vergleichbare Wirkung und Therapieeffekt

CCCN1CCCC[C@H]1C(=O)Nc1c(C)cccc1C [Ropivacain]
analgetischer Effekt [3]: lang anhaltenden analgetischen Effekt

CCN(CC)CC(=O)Nc1c(C)cccc1C [Lidocain]
Sensibilitätsstörungen (chronischer Verletzungen; in vivo): ohne Sensibilitätsstörungen | Remission (chronischer Verletzungen; multiple repetition at 24-hour intervals): schrittweisen und i.d.R. vollständigen Remission | Schmerzreduktion (chronischer Verletzungen; targeted injections into the traumatised tissue): spontane Schmerzreduktion | Ergebnis Tiefe Nervenäste (Occipitalisneuralgie; deep nerve branches, repeat injections necessary): eher verzögert | Ergebnis oberflächliche Nervenäste (Occipitalisneuralgie; superficial nerve branches, as a rule, rarely one or two repeat injections): Spontan-Remission | Remission von Schmerzen und Beschwerden [4]: Spontane Remission | Sensibilitätsstörungen ([5]; in vivo): ohne Sensibilitätsstörungen | (Wund-)Heilungsdauer ([5]; one or two repetitions at 24-hour intervals, as a rule): Halbierung der sonst üblichen (Wund-)Heilungsdauer | Schmerzfreiheit ([5]; superficial injections into the traumatised tissue): spontane Schmerzfreiheit | Beeinträchtigung der Sensibilität (spinaler Nozizeptoren): ohne Beeinträchtigung der Sensibilität | Ergebnis der Repetition der Behandlung ([6]; repeated treatment, stepwise lengthening of pain-free intervals): dauerhaften Schmerzfreiheit | Sensibilitätsstörungen ([6]; typical case, 0,1 Gew.-%): ohne die von Injektionen mit herkömmlicher Lokalanästhetika-Konzentration bekannten Sensibilitätsstörungen | Blutungsmenge und Blutungsdauer [7]: vollständige Normalisierung | Rückgang aller Schmerzen und Begleitsymptome auf (chronischer Migräne; 4-week treatment group (n=21)): 3,2% | Rückgang aller Schmerzen und Begleitsymptome auf (chronischer Migräne; 5-week treatment group (n=43)): 1,1% | Rückgang aller Schmerzen und Begleitsymptome auf (chronischer Migräne; 6-week treatment group (n=20)): 1,0% | lang anhaltender therapeutischer Effekt (chronischer Migräne; after end of the treatment period, together with instructions on posture and lifestyle): mindestens einigen Jahren | Rückgang der Gesamtsummen aller Schmerz-Intensitäten und Migräne-Begleitsymptome auf (chronischer Migräne; end of first week, all treatment periods of 4, 5 or 6 weeks, relative to last severe attack without medication, twice daily): < 10% | Kopfschmerzen vom Spannungs-Typ (chronischer Migräne; patients with concomitant tension-type headache): schrittweise bis zum Ende jeder Behandlungs-Periode beseitigt | Allgemeinbefinden (chronischer Migräne; under treatment): positive Zunahme | Vollständige Remission aller Beschwerden nach (chronisches LWS-Syndrom): 10 Behandlungssitzungen | Ergebnis (Trigeminusneuralgie): Spontan-Remission | Anfallsdurchbrechung (Migräne): vollständige Anfallsdurchbrechung

CCCCNc1ccc(C(=O)OCCN(C)C)cc1 [Tetracain]
Behandlungsergebnis (Neuralgien): effektive Behandlung

CCCCN1CCCCC1C(=O)Nc1c(C)cccc1C (centres unmarked) [Bupivacain]
Behandlungsergebnis (Kopfschmerzen): erfolgreich behandelt | Wirkung und Therapieeffekt gegenüber Lidocain [2]: etwa vergleichbare Wirkung und Therapieeffekt
